Structures can show the parent of a compound that is named as a salt. Non-standard residues stand in square brackets, D forms with d. Residues, ends and D or L forms follow the SMILES beside them. *: point of attachment. Arg(NO2) = N=C(NCCC[C@H](N)C(=O)O)N[N+](=O)[O-]; X1 = CCCCO*
Test system: obese mice (SLAC/DB/DB)
Test: Anti-obese activity, transdermal, obese female DB/DB mice (third experiment)
Type: in vivo, mouse
Details: for Weight (g) (Day 1) / Blood Glucose Levels (day 1) (mg/dL, no fasting): baseline; for effect on body weights and blood glucose levels of obese mice (in words): 15, 1.5 and 0.5 mg/kg transdermal twice per day for 30 days
Procedure: (§1) In a third experiment, 40 obese female DB/DB mice (SLAC/DB/DB mice, 16 weeks old, 55-60 g) were divided into 4 groups. In group A, 0.1 ml of water was administered to the back of mouse (n=10) twice per day for 30 days. In Groups B, C, and D, 15 mg/kg, 1.5 mg/kg, and 0.5 mg/kg of H-Val-Pro-Gly-Pro-Arg(NO2)-OCH(CH3)2.HCl(SEQ ID NO: 197) in 0.1 ml of water was administered transdermally to the back of mouse (n=10) twice per day for 30 days respectively.
as §1, with “(SLAC/DB/DB) mice (16” for “(SLAC/DB/DB mice, 16”, “H-Val-Pro-Gly-Pro-Arg(diAc)-OCH2CH2CH2CH3.HCl(SEQ” for “H-Val-Pro-Gly-Pro-Arg(NO2)-OCH(CH3)2.HCl(SEQ”, “198)” for “197)”
as §1, with “(SLAC/DB/DB) mice (16” for “(SLAC/DB/DB mice, 16”, “53-61” for “55-60”, “H-Ala-Pro-Gly-Pro-Arg(NO2)—OCH2CH2CH2CH3.HCl(SEQ” for “H-Val-Pro-Gly-Pro-Arg(NO2)-OCH(CH3)2.HCl(SEQ”, “199)” for “197)”
as §1, with “(SLAC/DB/DB) mice (16” for “(SLAC/DB/DB mice, 16”, “53-61” for “55-60”, “H-Val-Pro-Asp(OEt)-Pro-Arg(NO2)-OCH2CH2CH2CH3.HCl(SEQ” for “H-Val-Pro-Gly-Pro-Arg(NO2)-OCH(CH3)2.HCl(SEQ”, “200)” for “197)”

[1] = 0.5 mg/kg transdermal twice per day for 30 days
[2] = 0.5 mg/kg transdermal twice per day
[3] = 1.5 mg/kg transdermal twice per day for 30 days
[4] = 1.5 mg/kg transdermal twice per day
[5] = 15 mg/kg transdermal twice per day for 30 days
[6] = 15 mg/kg transdermal twice per day

Compound | Weight (g) (Day 30) [1] | Blood Glucose Levels (day 30) (mg/dL, no fasting) [1] [mg/dL] | Weight (g) (Day 1) [2] | Blood Glucose Levels (day 1) (mg/dL, no fasting) [2] [mg/dL] | Weight (g) (Day 30) [3] | Blood Glucose Levels (day 30) (mg/dL, no fasting) [3] [mg/dL] | Weight (g) (Day 1) [4] | Blood Glucose Levels (day 1) (mg/dL, no fasting) [4] [mg/dL] | Weight (g) (Day 30) [5] | Blood Glucose Levels (day 30) (mg/dL, no fasting) [5] [mg/dL] | Weight (g) (Day 1) [6] | Blood Glucose Levels (day 1) (mg/dL, no fasting) [6] [mg/dL] | effect on body weights and blood glucose levels of obese mice (in words)
CCCCOC(=O)[C@H](CCCNC(=N)N[N+](=O)[O-])NC(=O)[C@@H]1CCCN1C(=O)CNC(=O)[C@@H]1CCCN1C(=O)[C@H](C)N [H-Ala-Pro-Gly-Pro-Arg(NO2)—OCH2CH2CH2CH3.HCl] (HELM PEPTIDE1{A.P.G.P.[N=C(NCCC[C@H](N[*:1])C(=O)[*:2])N[N+](=O)[O-]].[CCCCO[*:1]]}$$$$V2.0) | 54.7 ± 2.7 | 159.4 ± 24.4 | 58.4 ± 2.9 | 197.6 ± 28.2 | 53.3 ± 3.2 | 148.4 ± 16.4 | 57.1 ± 2.8 | 199.4 ± 23.7 | 51.9 ± 2.7 | 139.5 ± 15.9 | 57.2 ± 2.2 | 202.4 ± 21.4 | reduced body weights and blood glucose levels of obese mice effectively
CCCCOC(=O)[C@H](CCCNC(=N)N[N+](=O)[O-])NC(=O)[C@@H]1CCCN1C(=O)[C@H](CC(=O)OCC)NC(=O)[C@@H]1CCCN1C(=O)[C@@H](N)C(C)C [H-Val-Pro-Asp(OEt)-Pro-Arg(NO2)—OCH2CH2CH2CH3.HCl] (H-VPD(OEt)P[Arg(NO2)]-X1) | 56.7 ± 2.8 | 171.8 ± 28.4 | 58.7 ± 3.3 | 199.6 ± 31.5 | 54.3 ± 2.9 | 152.4 ± 26.8 | 58.8 ± 3.1 | 203.4 ± 25.8 | 52.4 ± 3.4 | 145.4 ± 25.7 | 57.9 ± 3.8 | 203.4 ± 27.4 | reduced body weights and blood glucose levels of obese mice effectively
CC(C)OC(=O)[C@H](CCCNC(=N)N[N+](=O)[O-])NC(=O)[C@@H]1CCCN1C(=O)CNC(=O)[C@@H]1CCCN1C(=O)[C@@H](N)C(C)C [H-Val-Pro-Gly-Pro-Arg(NO2)-OCH(CH3)2•HCl, H-Val-Pro-Gly-Pro-Arg(NO2)—OCH(CH3)2.HCl] (HELM PEPTIDE1{V.P.G.P.[N=C(NCCC[C@H](N[*:1])C(=O)[*:2])N[N+](=O)[O-]].[CC(C)O[*:1]]}$$$$V2.0) | 54.2 ± 2.9 | 153.4 ± 26.4 | 56.2 ± 2.7 | 199.7 ± 26.8 | 52.3 ± 1.9 | 142.4 ± 18.7 | 57.2 ± 2.1 | 201.4 ± 23.1 | 52.1 ± 2.2 | 137.4 ± 25.2 | 57.7 ± 1.6 | 206.4 ± 21.8 | reduced body weights and blood glucose levels of obese mice effectively
H-Val-Pro-Gly-Pro-Arg(diAc)-OCH2CH2CH2CH3.HCl | 59.3 ± 3.2 | 179.4 ± 21.1 | 57.9 ± 2.7 | 196.9 ± 29.8 | 58.3 ± 2.9 | 166.4 ± 20.8 | 57.6 ± 3.8 | 195.4 ± 36.7 | 54.7 ± 3.8 | 152.4 ± 17.9 | 56.7 ± 2.7 | 201.5 ± 24.6 | reduced body weights and blood glucose levels of obese mice effectively

— patent US9248109B2, “High penetration prodrug compositions of peptides and peptide-related compounds” (priority 2009, dated 2016)
